Measurements as given in ChEMBL document CHEMBL1137952, “Fertilin beta peptidic liposomes inhibit fertilization by steric blockage” (Bioorg Med Chem Lett, 2004).
The source made the active and inactive calls. The rule behind the calls is not given here. Non-standard residues stand in square brackets, D forms with d. Residues, ends and D or L forms follow the SMILES beside them. ξ: configuration not given here. *: point of attachment. Myristoyl = CCCCCCCCCCCCCC(=O)*; Dap = NC[C@H](N)C(=O)O; ξDap = NCC(N)C(=O)O; GABA = NCCCC(=O)O

How the values were obtained:
Liposome [1] = experiment: Inhibition of fertilization by POPC (40 or 400 nm), measured by number of zona-free eggs fertilized (FR); No inhibition uM; assay type: functional, subcellular, Mus musculus
Liposome [2] = experiment: Inhibition of fertilization by POPC (40 or 400 nm), measured by number of zona-free eggs fertilized (FR); No inhibition; assay type: functional, subcellular, Mus musculus
Liposome [3] = experiment: Maximal inhibition of fertilization by POPC (40 or 400 nm); No inhibition; assay type: functional; conditions: Mus musculus
Liposome [4] = experiment: Inhibition of fertilization by POPC (40 or 400 nm), measured by average number of sperm fused / egg (FI); No inhibition uM; assay type: functional, Mus musculus
Liposome [5] = experiment: Inhibition of fertilization by fertilin beta peptide, measured by number of zona-free eggs fertilized (FR); assay type: functional, subcellular, Mus musculus
Liposome [6] = experiment: Inhibition of fertilization by fertilin beta peptide, measured by average number of sperm fused / egg (FI); assay type: functional, Mus musculus
Liposome [7] = experiment: Maximal inhibition of fertilization by fertilin beta peptide; assay type: functional, subcellular; conditions: Mus musculus
Liposome [8] = experiment: Inhibition of fertilization by fertilin beta peptide (5 mol%) with 40 nm liposome, measured by number of zona-free eggs fertilized (FR); assay type: functional, subcellular, Mus musculus
Liposome [9] = experiment: Inhibition of fertilization by fertilin beta peptide (0.5 mol%) with 400 nm liposome, measured by average number of sperm fused per egg (FI); assay type: functional, subcellular, Mus musculus
Liposome [10] = experiment: Inhibition of fertilization by fertilin beta peptide (1 mol%) with 40 nm liposome, measured by average number of sperm fused per egg (FI); assay type: functional, subcellular, Mus musculus
Liposome [11] = experiment: Inhibition of fertilization by fertilin beta peptide (0.013 mol%) with 40 nm liposome, measured by number of zona-free eggs fertilized (FR); No inhibition up to 125 nm peptide; assay type: functional, Mus musculus
Liposome [12] = experiment: Inhibition of fertilization by fertilin beta peptide (0.1 mol%) with 40 nm liposome, measured by average number of sperm fused per egg (FI); assay type: functional, subcellular, Mus musculus
Liposome [13] = experiment: Inhibition of fertilization by fertilin beta peptide (1 mol%) with 40 nm liposome, measured by number of zona-free eggs fertilized (FR); assay type: functional, subcellular, Mus musculus
Liposome [14] = experiment: Inhibition of fertilization by fertilin beta peptide (0.013 mol%) with 40 nm liposome, measured by number of zona-free eggs fertilized (FR); No inhibition; assay type: functional, subcellular, Mus musculus
Liposome [15] = experiment: Maximal inhibition of fertilization by fertilin beta peptide (0.5 mol%) with 40 nm liposome; assay type: functional, subcellular; conditions: Mus musculus
Liposome [16] = experiment: Inhibition of fertilization by fertilin beta peptide (0.5 mol%) with 400 nm liposome, measured by number of zona-free eggs fertilized (FR); assay type: functional, subcellular, Mus musculus
Liposome [17] = experiment: Inhibition of fertilization by fertilin beta peptide (0.5 mol%) with 40 nm liposome, measured by average number of sperm fused per egg (FI); assay type: functional, subcellular, Mus musculus
Liposome [18] = experiment: Inhibition of fertilization by fertilin beta peptide (0.5 mol%) with 40 nm liposome, measured by number of zona-free eggs fertilized (FR); assay type: functional, subcellular, Mus musculus
Liposome [19] = experiment: Inhibition of fertilization by fertilin beta peptide (5 mol%) with 40 nm liposome, measured by average number of sperm fused per egg (FI); assay type: functional, subcellular, Mus musculus
Liposome [20] = experiment: Inhibition of fertilization by fertilin beta peptide (0.013 mol%) with 40 nm liposome, measured by average number of sperm fused per egg (FI); No inhibition up to 125 nm peptide; assay type: functional, Mus musculus
Liposome [21] = experiment: Maximal inhibition of fertilization by fertilin beta peptide (1 mol%) with 40 nm liposome; assay type: functional, subcellular; conditions: Mus musculus
Liposome [22] = experiment: Inhibition of fertilization by fertilin beta peptide (0.1 mol%) with 40 nm liposome, measured by number of zona-free eggs fertilized (FR); assay type: functional, subcellular, Mus musculus
Liposome [23] = experiment: Inhibition of fertilization by fertilin beta peptide (1 mol%) with 40 nm liposome, measured by number of zona-free eggs fertilized (FR); No inhibition; assay type: functional, subcellular, Mus musculus
Liposome [24] = experiment: Inhibition of fertilization by fertilin beta peptide (1 mol%) with 40 nm liposome, measured by average number of sperm fused /egg (FI); No inhibition uM peptide; assay type: functional, subcellular, Mus musculus
Liposome [25] = experiment: Inhibition of fertilization by fertilin beta peptide (1 mol%) with 40 nm liposome, measured by number of zona-free eggs fertilized (FR); No inhibition uM peptide; assay type: functional, subcellular, Mus musculus
Liposome [26] = experiment: Maximal inhibition of fertilization by fertilin beta peptide (1 mol%) with 40 nm liposome; No inhibition; assay type: functional, subcellular; conditions: Mus musculus

## CCCCCCCC/C=C\CCCCCCCC(=O)OC(COC(=O)CCCCCCCCCCCCCCC)COP(=O)([O-])OCC[N+](C)(C)C (stereo not given)
Liposome [1]
  IC50: Not Active
Liposome [2]
  IC50: Not Active
Liposome [3]
  Max inhibition: inactive
Liposome [4]
  IC50: Not Active

## CC(=O)NC[C@H](NC(C)=O)C(=O)NCCCC(=O)N[C@@H](C)C(=O)N[C@@H](CCC(N)=O)C(=O)N[C@@H](CC(=O)O)C(=O)N[C@@H](CCC(=O)O)C(=O)N[C@@H](CS)C(=O)N[C@@H](CC(=O)O)C(=O)N[C@H](C(=O)N[C@H](C(=O)N[C@@H](CCC(=O)O)C(=O)N[C@@H](Cc1ccc(O)cc1)C(N)=O)[C@@H](C)O)C(C)C (Ac-[Dap](Ac)[GABA]AQDECDVTEY-NH2)
Liposome [5]
  IC50: 500000 nM
Liposome [6]
  IC50: 524000 nM
Liposome [7]
  Max inhibition: 71%

## CCCCCCCCCCCCCC(=O)NCC(NC(=O)CCCCCCCCCCCCC)C(=O)NCCCC(=O)N[C@@H](C)C(=O)N[C@@H](CCC(N)=O)C(=O)N[C@@H](CC(=O)O)C(=O)N[C@@H](CCC(=O)O)C(=O)N[C@@H](CS)C(=O)N[C@@H](CC(=O)O)C(=O)N[C@H](C(=O)N[C@H](C(=O)N[C@@H](CCC(=O)O)C(=O)N[C@@H](Cc1ccc(O)cc1)C(N)=O)[C@@H](C)O)C(C)C (stereo not given in full) (Myristoyl-[ξDap](Myristoyl)[GABA]AQDECDVTEY-NH2)
Liposome [8]
  IC50: 4200000000000 liposomes ml-1
Liposome [8]; read-out: IC50
  IC50: 5000 nM
Liposome [9]
  IC50: 920 nM
Liposome [10]
  IC50: 2400 nM
Liposome [11]
  IC50: Not Active
Liposome [12]
  IC50: 500 nM
Liposome [13]
  IC50: 11000000000000 liposomes ml-1
Liposome [13]; read-out: IC50
  IC50: 2500 nM
Liposome [14]
  IC50: Not Active
Liposome [15]
  Max inhibition: 93%
Liposome [16]
  IC50: 59000000000 liposomes ml-1
Liposome [16]; read-out: IC50
  IC50: 750 nM
Liposome [17]
  IC50: 500 nM
Liposome [18]
  IC50: 2800000000000 liposomes ml-1
Liposome [18]; read-out: IC50
  IC50: 340 nM
Liposome [19]
  IC50: 5000 nM
Liposome [20]
  IC50: Not Active
Liposome [21]
  Max inhibition: 97%
Liposome [22]
  IC50: 500 nM

## CCCCCCCCCCCCCC(=O)NCC(NC(=O)CCCCCCCCCCCCC)C(=O)NCCCC(=O)N[C@@H](CC(=O)O)C(=O)N[C@@H](Cc1ccc(O)cc1)C(=O)N[C@@H](CCC(=O)O)C(=O)N[C@H](C(=O)N[C@@H](CCC(=O)O)C(=O)N[C@@H](CCC(N)=O)C(=O)N[C@@H](C)C(=O)N[C@@H](CS)C(=O)N[C@H](C(=O)N[C@@H](CC(N)=O)C(=O)O)[C@@H](C)O)C(C)C (stereo not given in full) (Myristoyl-[ξDap](Myristoyl)[GABA]DYEVEQACTN-OH)
Liposome [23]
  IC50: Not Active
Liposome [24]
  IC50: Not Active
Liposome [25]
  IC50: Not Active
Liposome [26]
  Max inhibition: inactive
